The results in this text go back to PubChem BioAssay (NCI).

Test systems include HCT-15 colon; SW-620 colon; HCC-2998 colon; LOX IMVI melanoma; UACC-257 melanoma; SN12C renal; M14 melanoma; SF-268 CNS; RXF 393 renal; COLO 205 colon; MDA-MB-435; NCI/ADR-RES ovarian; T-47D breast.
Common to all, as to assay: NCI tumour cell line growth inhibition, 48 h

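Cells were grown in 96-well plates and exposed to each compound for 48 hours at five concentrations; endpoints were interpolated linearly between bracketing concentrations, or set to the highest concentration if not reached. TGI: concentration producing complete growth inhibition.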

For `Cc1nc2c3c(ccc2[nH]c1=O)C(=O)c1ccccc1C3=O`, the TGI with HCT-15 colon, in the test on SW-620 colon, in the test with HCC-2998 colon, in the test on LOX IMVI melanoma, in the test with UACC-257 melanoma and with SN12C renal was more than 100 µM throughout. Also, the TGI with M14 melanoma, in the test with SF-268 CNS, in the test on RXF 393 renal and with COLO 205 colon was more than 100 µM throughout.
Regarding `C/C(=N/O)c1sc(-c2nc(C)c(/C(C)=N\O)s2)nc1C`, the TGI with HCT-15 colon, in the test on SW-620 colon, in the test on HCC-2998 colon, in the test with LOX IMVI melanoma, with UACC-257 melanoma and with SN12C renal was more than 100 µM throughout. Moreover, the TGI in the test on M14 melanoma, with SF-268 CNS, in the test on RXF 393 renal and with COLO 205 colon was more than 100 µM each time.
In the case of `Nc1cc(Cl)ccc1SSc1ccc(Cl)cc1N`, the TGI in the test with HCT-15 colon is 8.8 µM; in the test with SW-620 colon, 15 µM; in the test on MDA-MB-435 it was 25.9 µM; with LOX IMVI melanoma, 14.2 µM; in the test with UACC-257 melanoma it was 41.5 µM; in the test with SN12C renal, 28.7 µM. The TGI was 21.7 µM with M14 melanoma; 30.4 µM in the test on NCI/ADR-RES ovarian; 83.5 µM in the test with SF-268 CNS; more than 100 µM in the test on RXF 393 renal; 35.9 µM in the test with COLO 205 colon; 45.4 µM with T-47D breast.
On to `NC(=O)CCC(NC(=O)c1c2ccccc2nc2ccccc12)C(=O)O` (stereo unspecified), for which the TGI in the test with HCT-15 colon, with SW-620 colon, with HCC-2998 colon, in the test with MDA-MB-435, in the test on LOX IMVI melanoma and with UACC-257 melanoma was more than 100 µM each time. Besides, the TGI with SN12C renal, with M14 melanoma, in the test on NCI/ADR-RES ovarian, in the test with SF-268 CNS and in the test with COLO 205 colon was more than 100 µM in each case.
In the case of `CCN(CC)Cc1cc(Nc2ccnc3ccc4nn(C)nc4c23)ccc1O`, the TGI with HCT-15 colon was determined as 43.8 µM; with SW-620 colon, 28.2 µM; in the test on HCC-2998 colon, 26.4 µM; in the test on LOX IMVI melanoma, 21.5 µM; in the test with UACC-257 melanoma, 27.8 µM; with SN12C renal it was 86 µM. The TGI with M14 melanoma turned out to be 27.9 µM; in the test with SF-268 CNS it was 36.4 µM; in the test with RXF 393 renal, 21.6 µM; in the test on COLO 205 colon it was 19.1 µM.
In the case of `CN(C)C(=NC#N)N(Cc1ccccc1)Cc1ccccc1`, the TGI in the test with HCT-15 colon is 30.1 µM; in the test with SW-620 colon, 33.7 µM; with HCC-2998 colon, more than 100 µM; in the test on LOX IMVI melanoma, more than 100 µM; in the test on UACC-257 melanoma it was more than 100 µM; in the test on SN12C renal, more than 100 µM. Besides, the TGI with M14 melanoma, with SF-268 CNS, in the test on RXF 393 renal and with COLO 205 colon was more than 100 µM each time.
Take `CC1(C)CCCCCCCCCC2CC2CCC(C)(C)C1=O` (stereo unspecified): the TGI is 30.1 µM with HCT-15 colon; more than 100 µM with SW-620 colon; 55.5 µM with MDA-MB-435; 34.9 µM with LOX IMVI melanoma; 46.2 µM in the test on UACC-257 melanoma; 35.7 µM in the test with SN12C renal. Also, the TGI in the test on M14 melanoma was determined as 48.6 µM; in the test with NCI/ADR-RES ovarian it was 44.3 µM; with SF-268 CNS, 43.1 µM; with RXF 393 renal, 29.3 µM; in the test with COLO 205 colon, 32.7 µM; in the test with T-47D breast, 47.1 µM.
Turning to `O=C(CN=C(CN(c1ccccc1)c1ccccc1)Oc1ccc(Cl)cc1Cl)n1ccnc1`, the TGI in the test with HCT-15 colon, in the test with SW-620 colon, in the test on MDA-MB-435, in the test with LOX IMVI melanoma, in the test with UACC-257 melanoma and with SN12C renal was more than 100 µM each time. The TGI in the test with M14 melanoma, with NCI/ADR-RES ovarian, in the test with SF-268 CNS, in the test with RXF 393 renal, in the test with COLO 205 colon and with T-47D breast was more than 100 µM throughout.
Consider `Cc1cn(C2CCN(CC3COC(C)(C)O3)O2)c(=O)[nH]c1=O` (stereo unspecified), for which the TGI in the test with HCT-15 colon, in the test with SW-620 colon, in the test on MDA-MB-435, in the test on LOX IMVI melanoma, with UACC-257 melanoma and with SN12C renal was more than 100 µM throughout. Also, the TGI in the test on M14 melanoma, in the test on NCI/ADR-RES ovarian, in the test on SF-268 CNS, in the test on RXF 393 renal, in the test with COLO 205 colon and with T-47D breast was more than 100 µM throughout.
For `CCCCC1(O)CC2CC1C(C)C2(C)C` (stereo unspecified), the TGI in the test on HCT-15 colon, with SW-620 colon, with HCC-2998 colon, in the test on MDA-MB-435, with LOX IMVI melanoma and in the test on UACC-257 melanoma was more than 100 µM throughout. For the same molecule, the TGI in the test on SN12C renal, in the test on M14 melanoma, in the test on NCI/ADR-RES ovarian, in the test with SF-268 CNS, with RXF 393 renal and in the test on COLO 205 colon was more than 100 µM each time.
In the case of `Cc1ccccc1Nc1nc(NNC(=O)Cc2ccccc2)nc(NNC(=O)c2ccncc2)n1`, the TGI in the test on HCT-15 colon, with HCC-2998 colon, in the test on LOX IMVI melanoma, in the test on UACC-257 melanoma, in the test on SN12C renal and in the test with M14 melanoma was more than 10 µM in each case. The TGI with NCI/ADR-RES ovarian, with SF-268 CNS, in the test on COLO 205 colon and in the test on T-47D breast was more than 10 µM each time.
For `COc1cc(CNc2cnc3ccc(N)cc3n2)cc(OC)c1OC`, the TGI with HCT-15 colon, with SW-620 colon, in the test with HCC-2998 colon, in the test with LOX IMVI melanoma, with UACC-257 melanoma and with SN12C renal was more than 100 µM in each case. Moreover, the TGI in the test with M14 melanoma, with SF-268 CNS, in the test with RXF 393 renal and with COLO 205 colon was more than 100 µM in each case.
